Test results reported in ChEMBL document CHEMBL3272224, “Synthesis and hypotensive activity of N-alkyl-N"-cyano-N'-pyridylguanidines” (J Med Chem, 1978).

How the values were obtained:
[1] = Toxicity in po dosed mouse assessed as mortality after 7 days; conditions: in vivo
Rattus norvegicus = experiment: Hypotensive activity in po dosed spontaneously hypertensive Wistar-Okamoto rat assessed as dose required to cause 30 mmHg fall of blood pressure administered for 5 days; type: functional; conditions: 120 h, read-out: MED

Compound CC(C)C/N=C(\NC#N)Nc1cccnc1 has an LD50 at 168 h [1] of over 1000 mg/kg and a minimal effective dose (Rattus norvegicus) of 20 mg/kg.

With CCC(C)(C)/N=C(\Nc1cccnc1)Nc1nccs1 the LD50 at 168 h [1] was over 1000 mg/kg and the minimal effective dose (Rattus norvegicus) was 20 mg/kg.

Compound COc1ccc(N/C(=N/C(C)(C)C)NC#N)cn1 has an LD50 at 168 h [1] of 400 mg/kg and a minimal effective dose (Rattus norvegicus) of 15 mg/kg.

CCN(CC)CC/N=C(\NC#N)Nc1cccnc1 showed an LD50 at 168 h [1] of 250 mg/kg and a minimal effective dose (Rattus norvegicus) of over 8 mg/kg.

In the case of CC(C)(N/C(=N\C#N)Nc1ccncc1)c1ccccc1, the LD50 at 168 h [1] is reported as over 1000 mg/kg and the minimal effective dose (Rattus norvegicus) is reported as over 50 mg/kg.

For CCC(C)(C)N/C(=N\C#N)Nc1cc(C)nc2ccccc12, the LD50 at 168 h [1] was over 1000 mg/kg and the minimal effective dose (Rattus norvegicus) was 10 mg/kg.

CCC(C)(CC)/N=C(\NC#N)Nc1ccncc1 showed an LD50 at 168 h [1] of 300 mg/kg and a minimal effective dose (Rattus norvegicus) of 0.5 mg/kg.
